Assays:
[1] = compound: O=[As]([O-])(O)O.[K+] [potassium arsenate]; assay: thermal stability z-score vs DMSO; higher = more thermally stabilized by treatment; details: HeLa; arsenate concentration 1 mM
Experimental: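 Cellular thermal proteome profiling in HeLa cells treated with 1 mM arsenate for 1 h (DMSO pretreatment), heated to ten temperatures (37-66.3 °C). Soluble protein was quantified by TMT mass spectrometry relative to DMSO controls; the thermal stability score was transformed to a z-score; mean of n = 3 experiments.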

[2] = compound: NC(=O)CCCCC1CCSS1 [lipoamide]; assay: as above; details: HeLa, lipoamide concentration 100 µM
Experimental: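 Cellular thermal proteome profiling in HeLa cells. Cells were treated with 100 µM lipoamide for 1 h, with or without 1 mM arsenate for a further 1 h, then heated to ten temperatures (37-66.3 °C), and soluble protein was quantified by TMT mass spectrometry relative to 0.1% DMSO controls. The thermal stability score (sum of log2 fold changes minus the abundance score) was transformed to a z-score; mean of n = 3 experiments.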

[3] = arsenate co-treatment: 1 mM arsenate 1 h
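Note: each temperature applied for 3 min, abundance score taken as mean log2 fold change at the two lowest temperatures, z-score obtained by mean subtraction and division by SD.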

Sequence of UniProt O14544 (O14544 whole entry): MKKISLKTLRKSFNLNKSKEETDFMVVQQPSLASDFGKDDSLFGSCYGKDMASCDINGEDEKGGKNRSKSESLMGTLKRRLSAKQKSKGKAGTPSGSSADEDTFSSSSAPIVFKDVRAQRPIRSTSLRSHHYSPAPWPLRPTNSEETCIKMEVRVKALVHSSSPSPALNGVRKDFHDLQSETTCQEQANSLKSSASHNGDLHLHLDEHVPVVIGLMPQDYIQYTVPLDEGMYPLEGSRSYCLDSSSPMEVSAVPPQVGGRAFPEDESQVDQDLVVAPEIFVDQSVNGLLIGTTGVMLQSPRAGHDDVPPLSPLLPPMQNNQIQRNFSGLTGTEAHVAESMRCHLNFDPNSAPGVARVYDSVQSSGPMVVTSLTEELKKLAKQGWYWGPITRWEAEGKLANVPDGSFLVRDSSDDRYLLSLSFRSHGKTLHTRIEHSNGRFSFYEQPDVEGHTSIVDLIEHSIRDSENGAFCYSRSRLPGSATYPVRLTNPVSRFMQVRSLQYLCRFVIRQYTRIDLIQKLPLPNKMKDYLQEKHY
Sequence of UniProt Q96R06 (Q96R06 whole entry): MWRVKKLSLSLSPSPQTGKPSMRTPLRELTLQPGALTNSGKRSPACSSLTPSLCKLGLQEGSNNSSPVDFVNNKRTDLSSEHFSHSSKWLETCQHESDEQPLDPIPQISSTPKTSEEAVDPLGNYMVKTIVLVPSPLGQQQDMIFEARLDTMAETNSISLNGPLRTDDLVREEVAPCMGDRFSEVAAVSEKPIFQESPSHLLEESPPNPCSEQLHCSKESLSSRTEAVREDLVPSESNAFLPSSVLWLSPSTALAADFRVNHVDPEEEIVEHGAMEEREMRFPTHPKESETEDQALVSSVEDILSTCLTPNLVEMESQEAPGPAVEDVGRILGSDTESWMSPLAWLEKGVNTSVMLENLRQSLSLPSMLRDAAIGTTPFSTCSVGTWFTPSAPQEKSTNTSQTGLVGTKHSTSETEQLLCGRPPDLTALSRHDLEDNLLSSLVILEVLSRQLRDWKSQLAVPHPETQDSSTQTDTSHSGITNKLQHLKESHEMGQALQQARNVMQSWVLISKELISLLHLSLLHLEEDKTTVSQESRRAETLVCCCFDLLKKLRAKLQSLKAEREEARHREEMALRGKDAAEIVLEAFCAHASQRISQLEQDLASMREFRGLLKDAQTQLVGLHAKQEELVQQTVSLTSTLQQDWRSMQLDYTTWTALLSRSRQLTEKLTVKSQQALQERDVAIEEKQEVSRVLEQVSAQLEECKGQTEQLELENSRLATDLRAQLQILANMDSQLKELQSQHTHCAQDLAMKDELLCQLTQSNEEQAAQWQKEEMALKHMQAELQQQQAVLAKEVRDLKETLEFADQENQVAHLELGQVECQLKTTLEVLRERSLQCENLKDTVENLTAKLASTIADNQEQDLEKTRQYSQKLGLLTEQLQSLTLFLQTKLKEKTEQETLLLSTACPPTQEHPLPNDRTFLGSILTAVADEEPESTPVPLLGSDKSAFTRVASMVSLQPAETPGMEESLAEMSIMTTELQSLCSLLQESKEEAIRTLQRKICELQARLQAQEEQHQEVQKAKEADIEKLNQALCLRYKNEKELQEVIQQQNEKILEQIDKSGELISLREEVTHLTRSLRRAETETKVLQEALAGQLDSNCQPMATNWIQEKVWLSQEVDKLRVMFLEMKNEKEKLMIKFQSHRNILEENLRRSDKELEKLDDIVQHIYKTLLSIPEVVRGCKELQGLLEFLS
Sequence of UniProt Q8WV41 (Q8WV41 whole entry): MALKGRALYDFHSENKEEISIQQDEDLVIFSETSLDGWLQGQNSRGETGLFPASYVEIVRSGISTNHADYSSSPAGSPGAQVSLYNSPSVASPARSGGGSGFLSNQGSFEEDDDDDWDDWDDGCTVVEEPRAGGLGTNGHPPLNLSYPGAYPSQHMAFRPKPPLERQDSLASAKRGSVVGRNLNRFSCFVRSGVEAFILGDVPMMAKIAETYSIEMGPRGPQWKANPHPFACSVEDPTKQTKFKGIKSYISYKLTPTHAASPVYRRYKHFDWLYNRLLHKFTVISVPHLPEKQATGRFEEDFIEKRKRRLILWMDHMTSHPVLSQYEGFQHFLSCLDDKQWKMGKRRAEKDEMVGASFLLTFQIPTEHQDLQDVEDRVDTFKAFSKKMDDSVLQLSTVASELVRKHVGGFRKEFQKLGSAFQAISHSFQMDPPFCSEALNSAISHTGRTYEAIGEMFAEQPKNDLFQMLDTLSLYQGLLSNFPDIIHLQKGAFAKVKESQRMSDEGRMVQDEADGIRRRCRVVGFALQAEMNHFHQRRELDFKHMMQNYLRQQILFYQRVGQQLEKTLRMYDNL
Sequence of UniProt Q86XZ4 (Q86XZ4 whole entry): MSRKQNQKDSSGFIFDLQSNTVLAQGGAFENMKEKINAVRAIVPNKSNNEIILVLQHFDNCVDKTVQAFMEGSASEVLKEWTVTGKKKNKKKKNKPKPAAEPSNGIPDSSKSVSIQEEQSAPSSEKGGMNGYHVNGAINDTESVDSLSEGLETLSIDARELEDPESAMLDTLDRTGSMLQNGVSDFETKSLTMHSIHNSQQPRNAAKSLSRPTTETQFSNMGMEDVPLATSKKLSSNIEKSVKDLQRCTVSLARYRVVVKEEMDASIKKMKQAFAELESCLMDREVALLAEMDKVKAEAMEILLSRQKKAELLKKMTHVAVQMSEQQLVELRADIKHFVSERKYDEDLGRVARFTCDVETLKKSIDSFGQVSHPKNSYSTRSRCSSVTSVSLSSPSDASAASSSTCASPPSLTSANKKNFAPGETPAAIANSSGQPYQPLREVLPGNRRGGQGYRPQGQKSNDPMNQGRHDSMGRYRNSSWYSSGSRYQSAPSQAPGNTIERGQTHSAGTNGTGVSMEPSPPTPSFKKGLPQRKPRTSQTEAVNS
Sequence of UniProt Q96PQ0 (Q96PQ0 whole entry): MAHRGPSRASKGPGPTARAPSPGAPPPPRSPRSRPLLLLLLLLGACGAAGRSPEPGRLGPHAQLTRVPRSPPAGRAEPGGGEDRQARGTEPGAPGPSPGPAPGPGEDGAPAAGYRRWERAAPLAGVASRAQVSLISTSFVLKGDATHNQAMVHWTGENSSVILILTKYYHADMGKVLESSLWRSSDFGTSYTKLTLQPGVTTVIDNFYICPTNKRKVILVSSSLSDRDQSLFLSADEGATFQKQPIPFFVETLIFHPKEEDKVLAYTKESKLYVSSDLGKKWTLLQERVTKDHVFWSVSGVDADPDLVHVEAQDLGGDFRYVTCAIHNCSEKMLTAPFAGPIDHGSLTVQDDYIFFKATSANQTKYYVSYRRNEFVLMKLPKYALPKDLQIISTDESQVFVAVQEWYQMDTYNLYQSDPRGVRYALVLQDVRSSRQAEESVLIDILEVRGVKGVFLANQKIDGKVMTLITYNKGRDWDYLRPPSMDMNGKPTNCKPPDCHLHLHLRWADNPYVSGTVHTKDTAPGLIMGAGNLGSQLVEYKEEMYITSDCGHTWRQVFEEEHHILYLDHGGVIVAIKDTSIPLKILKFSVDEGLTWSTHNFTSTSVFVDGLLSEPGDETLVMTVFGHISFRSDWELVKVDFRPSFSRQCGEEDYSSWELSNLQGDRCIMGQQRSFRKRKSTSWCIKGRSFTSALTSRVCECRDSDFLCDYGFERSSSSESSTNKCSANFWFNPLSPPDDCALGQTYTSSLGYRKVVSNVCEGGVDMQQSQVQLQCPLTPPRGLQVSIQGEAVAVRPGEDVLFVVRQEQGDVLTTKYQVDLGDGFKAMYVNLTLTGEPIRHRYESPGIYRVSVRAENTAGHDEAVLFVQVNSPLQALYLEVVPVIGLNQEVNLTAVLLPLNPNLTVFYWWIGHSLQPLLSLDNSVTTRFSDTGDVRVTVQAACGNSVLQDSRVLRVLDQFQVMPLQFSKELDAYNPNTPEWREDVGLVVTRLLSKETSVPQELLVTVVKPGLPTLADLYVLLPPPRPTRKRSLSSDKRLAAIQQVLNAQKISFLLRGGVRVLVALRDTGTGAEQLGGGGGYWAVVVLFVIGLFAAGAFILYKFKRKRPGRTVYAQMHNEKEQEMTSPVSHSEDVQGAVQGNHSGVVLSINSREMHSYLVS
Sequence of UniProt Q8NBT2 (Q8NBT2 whole entry): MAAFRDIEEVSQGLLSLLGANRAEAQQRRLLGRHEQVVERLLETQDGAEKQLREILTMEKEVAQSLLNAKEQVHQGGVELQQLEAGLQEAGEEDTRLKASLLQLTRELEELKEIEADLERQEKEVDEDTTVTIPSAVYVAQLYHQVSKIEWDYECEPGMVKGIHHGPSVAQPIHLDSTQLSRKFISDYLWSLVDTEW
Sequence of UniProt Q15036 (Q15036 whole entry): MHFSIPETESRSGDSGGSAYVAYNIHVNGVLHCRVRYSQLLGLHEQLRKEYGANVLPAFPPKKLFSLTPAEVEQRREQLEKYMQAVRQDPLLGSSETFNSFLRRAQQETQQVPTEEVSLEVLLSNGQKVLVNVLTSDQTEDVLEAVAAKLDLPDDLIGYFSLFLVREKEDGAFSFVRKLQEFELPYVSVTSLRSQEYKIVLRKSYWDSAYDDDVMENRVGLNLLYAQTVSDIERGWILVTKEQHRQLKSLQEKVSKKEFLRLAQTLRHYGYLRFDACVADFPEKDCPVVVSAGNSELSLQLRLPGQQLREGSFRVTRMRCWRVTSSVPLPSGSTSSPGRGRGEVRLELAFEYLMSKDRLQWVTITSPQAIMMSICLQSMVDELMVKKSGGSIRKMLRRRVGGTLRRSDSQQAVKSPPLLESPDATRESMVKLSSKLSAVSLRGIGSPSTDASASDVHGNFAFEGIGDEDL
Sequence of UniProt P04179 (P04179 whole entry): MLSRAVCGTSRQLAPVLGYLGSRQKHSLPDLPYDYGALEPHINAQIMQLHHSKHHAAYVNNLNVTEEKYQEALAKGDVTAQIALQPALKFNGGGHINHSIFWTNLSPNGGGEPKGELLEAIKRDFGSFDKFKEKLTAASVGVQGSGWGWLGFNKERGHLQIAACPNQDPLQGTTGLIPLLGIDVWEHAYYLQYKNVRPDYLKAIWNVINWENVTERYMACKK

| Target | thermal stability z-score [1] | thermal stability z-score [2, 3] | thermal stability z-score ([2]; arsenate co-treatment: none) |
| --- | --- | --- | --- |
| SNX16 (UniProt P57768) | -0.741 | 1.01 | -0.515 |
| SNX17 (UniProt Q15036) | -0.423 | -0.581 | 0.118 |
| SNX27 (UniProt Q96L92) | 0.511 | -0.141 | 0.167 |
| SNX30 (UniProt Q5VWJ9) | -0.275 | -0.254 | 0.144 |
| SNX33 (UniProt Q8WV41) | -0.148 | -0.136 | 0.0586 |
| SOAT1 (UniProt P35610) | 0.731 | -1.32 | -0.546 |
| SOCS6 (UniProt O14544) | 0.053 | 0.0176 | 0.0429 |
| SOD1 (UniProt P00441) | -0.236 | -0.57 | -0.258 |
| SOD2 (UniProt P04179) | 0.195 | 0.512 | 0.261 |
| SOGA1 (UniProt O94964) | -0.097 | 0.0497 | -0.0282 |
| SORBS3 (UniProt O60504) | -0.323 | -0.117 | 0.0779 |
| SORCS2 (UniProt Q96PQ0) | -0.319 | -0.156 | -0.45 |
| SORD (UniProt Q00796) | -0.608 | 0.301 | -0.192 |
| SORT1 (UniProt Q99523) | 1.41 | -0.0906 | 0.945 |
| SOS1 (UniProt Q07889) | 0.167 | 0.324 | 0.304 |
| SOWAHC (UniProt Q53LP3) | 0.0878 | 0.277 | 0.343 |
| SOX13 (UniProt Q9UN79) | -0.618 | -0.169 | 0.00372 |
| SP1 (UniProt P08047) | 0.789 | -0.0425 | -0.199 |

| Target | thermal stability z-score [1] | thermal stability z-score [2, 3] | thermal stability z-score ([2]; arsenate co-treatment: none) |
| --- | --- | --- | --- |
| SP3 (UniProt Q02447) | -0.584 | -0.177 | -0.427 |
| SP100 (UniProt P23497) | 4.5 | 3.43 | 0.96 |
| SPAG1 (UniProt Q07617) | -0.401 | 0.0825 | 0.0754 |
| SPAG5 (UniProt Q96R06) | -0.162 | -0.791 | -0.122 |
| SPAG7 (UniProt O75391) | -0.214 | 0.493 | 0.212 |
| SPAG9 (UniProt O60271) | 0.732 | 0.012 | -0.0736 |
| SPAST (UniProt Q9UBP0) | 0.604 | -0.179 | 0.818 |
| SPATA5 (UniProt Q8NB90) | -0.0295 | 0.389 | 0.148 |
| SPATA5L1 (UniProt Q9BVQ7) | 0.487 | 0.441 | 0.172 |
| SPATA20 (UniProt Q8TB22) | -0.121 | 0.172 | 0.136 |
| SPATS2 (UniProt Q86XZ4) | -0.00843 | -0.0725 | 0.644 |
| SPATS2L (UniProt Q9NUQ6) | -0.0325 | 0.296 | 0.638 |
| SPC24 (UniProt Q8NBT2) | -0.0105 | -0.122 | 0.106 |
| SPC25 (UniProt Q9HBM1) | 0.191 | 0.989 | -0.483 |
| SPCS2 (UniProt Q15005) | -0.373 | -0.33 | -0.411 |
| SPCS3 (UniProt P61009) | 0.879 | -1.66 | -1.75 |
| SPDL1 (UniProt Q96EA4) | 1.2 | 0.746 | 0.706 |

Reference: the supplement of paper PMC12463676, “Small-molecule dissolution of stress granules by redox modulation benefits ALS models” (Nature Chemical Biology, 2025)
